Assay results reported in BigSolDB 2.1.

Oc1cccc(/C=N\NC(=S)NC2CCCCC2)c1
Details | solubility (mole fraction)
in PEG-400, 298.15 K | 0.071
in PEG-400, 308.15 K | 0.0774
in PEG-400, 318.15 K | 0.0845
in PEG-400, 328.15 K | 0.0929
in PEG-400, 338.15 K | 0.101

solubility (mole fraction)
Details | in ethanol | in ethyl acetate | in ethylene glycol | in isopropanol | in propylene glycol | in transcutol | in water
298.15 K | 0.0135 | 0.0104 | 0.00185 | 0.0302 | 0.0319 | 0.0938 | 3.9e-07
308.15 K | 0.0141 | 0.0117 | 0.00225 | 0.0313 | 0.0332 | 0.0978 | 5.85e-07
318.15 K | 0.0149 | 0.0132 | 0.0029 | 0.0323 | 0.0345 | 0.102 | 9.09e-07
328.15 K | 0.0156 | 0.0147 | 0.00358 | 0.0335 | 0.036 | 0.106 | 1.36e-06
338.15 K | 0.0164 | 0.0167 | 0.00454 | 0.0345 | 0.0376 | 0.111 | 1.88e-06
